# Assay results from patent US9644037B2, “Antibodies that specifically bind ataxia telangiectasia-mutated and RAD3-related kinase phosphorylated at position 1989 and their use” (THE UNITED STATES OF AMERICA, AS REPRESENTED BY THE …, priority 2013, dated 2017).
# How the values were obtained:
# pT1989-ATR = assay: Immunoblot of ATR-Chk1 response to Top1 inhibitors with or without VE-821: ATR; format: cell-based; conditions: for phosphorylation of ATR (threonine 1989): Top1 inhibitor treatment, 0, 4, 8, 18 h after removal
# Description: (§1) For these studies, auto-phosphorylation of ATR on threonine 1989, a DNA damage activation site (Nam et al., J Biol Chem 2011; 286(33):28707-14; Liu et al., Molecular cell 2011; 43(2):192-202), was determined, as well as Chk1 phosphorylation on serine 345, which is mediated by ATR. Histone H2AX phosphorylation was also determined on serine 139 (γH2AX), a validated pharmacodynamic biomarker for DNA damage and apoptosis (Bonner et al., Nat Rev Cancer 2008; 8(12):957-67; Kinders et al., Clin Cancer Res 2010; 16(22):5447-57; Solier et al., Mol Cell Biol 2009; 29(1):68-82).
# (§2) Briefly, cell lysates were electrophoresed on 4-20% Tris-glycine or 3-8% Tris-acetate polyacrylamide gels, and transferred onto nitrocellulose membranes. Antibodies against GAPDH, ATR and pS345-Chk1 were obtained from Cell Signaling Technologies, γH2AX and pT68-Chk2 from Abcam and Top1 from BD Biosciences. The antibody against pT1989-ATR is disclosed above. After incubation with secondary antibody, signals were detected by enhanced chemiluminescence (Pierce).
# pS345-Chk1 = assay: Immunoblot of ATR-Chk1 response to Top1 inhibitors with or without VE-821: Chk1; format: cell-based; conditions: for phosphorylation of Chk1 (serine 345): Top1 inhibitor treatment
# Description: as §1, §2
# pT68-Chk2 = assay: Immunoblot of ATR-Chk1 response to Top1 inhibitors with or without VE-821: Chk2; format: cell-based; conditions: for phosphorylation of Chk2 (threonine 68): Top1 inhibitor treatment
# Description: as §2, with “[…]-Chk1” for “pS345-Chk1”, “[…]-Chk2” for “pT68-Chk2”, “[…]-ATR” for “pT1989-ATR”
# γH2AX = assay: Immunoblot of ATR-Chk1 response to Top1 inhibitors with or without VE-821: γH2AX; format: cell-based; conditions: for phosphorylation of H2AX (γH2AX): Top1 inhibitor treatment
# Description: as §1, §2
# phospho-ATR (pT1989) = assay: Western blot of phospho-ATR (pT1989) in drug-treated cells; format: cell-based, human
# Description: Cell growth was monitored 2-3 weeks after fusion. Hybridoma supernatants were screened by standard colorimetric ELISA against BSA-conjugated peptides as described in section C. The screening process consisted of a Primary screen on 40 plates (using bleed 2 of E5571 at 1:100 dilution as a Positive control) clones (44) with O.D. greater than 0.5 were considered putatively positive and were further expanded to 24-well plate. Confirmatory screen was performed and 6 clones were confirmed positive against phospho-specific peptides (Table 4). Additional screening was performed by ELISA using the same assay as for bleed screening (FIG. 5). Western blotting was done on selected clones #7, 27 and 35 for subcloning (FIG. 6). DLD-1 cells and DLD-1 Seckel cells with and without gemcitabine treatment (100 nM for 4 h) were lysed with cell extraction buffer (Invitrogen, catalog # FNN0011). Lysates were run on NUPAGE® NOVEX® 3-8% gels (Invitrogen, catalog # EA0378BOX) and transferred to nitrocellulose membranes (Invitrogen catalog # IB3010-01) using the IBLOT® apparatus from Invitrogen. Blots were blocked with Licor ODYSSEY® blocking buffer (LiCor, catalog #927-40010) and incubated overnight with hybridoma supernatants (1:30). Blots were then washed with PBS-T (0.05% TWEEN®) and incubated with Licor goat anti-rabbit IR-680 antibody for 1 h at room temperature. Blots were then washed with phosphate-buffered saline with 0.05% TWEEN®-20 (PBS-T) and scanned at 700 nm on Licor ODYSSEY® scanner.
# Details for lysate preparation and Western blotting are given in Example I, section E. The antibody detected a single band at about 250 kDa consistent with the predicted molecular weight (MW) for ATR. The antibody also detected an increase in phospho-ATR (pT1989) upon gemcitabine (SIGMA) treatment which is known to increase ATR activity (Mol. Pharmacol. (2005), 68, 1636-1644). Finally, an isogenic pair of DLD-1 cells was used.
# Cells were treated for 4 hours with either vehicle (DMSO, 0.01%), 150 nM Gemcitabine (Sigma), 1 uM ATR inhibitor VE-821 or combination of drugs. The antibody detected a single band at about 250 kDa consistent with the predicted MW for ATR. The antibody also detected an increase in phospho-ATR (pT1989) upon Gemcitabine treatment, which is known to increase ATR activity (Molecular Pharmacology (2005) 68, 1636-1644). […] Lysates were prepared in buffer as follows: 0.94 ml RIPA buffer, 40 μl Protease Inhibitor Cocktail (25× stock, Roche Cat#11697498001), 10 μl Phosphatase Inhibitor (Roche Cat#04906845001) and 10 μl PMSF (Sigma cat#93482). Lysates were sonicated prior to use. Lysates were run on 3-8% Tris-Acetate gels from NOVEX® (Invitrogen, Cat# EA0378BOX) and transferred to nitrocellulose membranes using the IBLOT® transfer apparatus, program setting P3, 20V, 13 min. Blots were blocked with Licor ODYSSEY® blocking buffer and incubated overnight with Clone 7 hybridoma supernatant (1:30). B lots were then washed with PBS-T (0.05% Tween) and incubated with Licor goat anti-rabbit IR-680 antibody for 1 h at room temperature. […]
# For these studies, DLD-1 parental and DLD-1 Seckel (Horizon) cells were treated with gemcitabine for 4 hours. Clone 7A7 detected ATR in the parental DLD-1 cell lysate by Western blotting and detects an increase in pT1989-ATR with gemcitabine treatment as expected. In contrast, the level of pT-1989 detected by clone 7A7 was much lower in the DLD-1 Seckel cells which have suppressed ATR expression.
# [1] = test system: ATR-pT1989 foci in A2780 xenografts; assay: pATR T1989 immunofluorescence assay in A2780 xenografts; format: in vivo, mice; conditions: 1.2 or 6.0 mg/kg intraperitoneally; 4, 7 and 24 hours; dose and time dependent
# Description: In vivo studies were performed. A2780 xenografts were evaluated in mice treated with 1.2 mg/kg cisplatin or 6.0 mg/kg cisplatin for 4, 7 and 24 hours. […] The following methods were used in these studies:
# Xenograft Samples and In Vivo Quantitation: Athymic nu/nu mice were implanted with A2780 cells as previously described (Kinders et al., Clin Cancer Res 2010:16(22):5447-57). Xenograft quadrants were collected and flash frozen from mice following exposure to vehicle (0.9% saline) or various doses (1.2, 6.0 mg/kg) of cisplatin administered intraperitoneally. The samples were fixed in neutral-buffered formalin and paraffin-embedded as previously described (Kinders et al., Clin Cancer Res 2010; 16(22):5447-57). Animal care was provided in accordance with the procedures outlined in the “Guide for Care and Use of Laboratory Animals” (National Research Council; 1996; National Academy Press; Washington, D.C.), and all studies were conducted under an approved Animal Care and Use Committee protocol. […]
# Quantitative Marker Analysis: The DEFINIENS TISSUE STUDIO® (Version 2.0.3; Build 2057) software program was used for analysis of foci count/nucleus. For the analysis, fields were scored first for the number of nuclei and then individual counts of the number of foci count/per nucleus were performed. […]
# [2] = test system: ATR phosphorylation at pT1989; assay: ATR-pT1989 IFA on FFPE pellets of drug-treated cells; format: cell-based, human
# Description: Formalin fixed paraffin embedded (FFPE) pellets were generated using cells expressing WT ATR (HT29, DLD-1 Parental) or mutated ATR (DLD-1 Seckel (Horizon)), with and without gemcitabine (SIGMA) treatment to induce ATR phosphorylation at pT1989 (Mol. Pharmacol. 2005, 68, 1636-1644). Cells were harvested by trypsinization, transferred into a sterile 50 ml conical centrifuge tubes with media containing 10% serum and pelleted at 1000×g for 5 minutes. Medium was replaced with fresh serum containing medium and centrifuged again at 1000×g, 5 minutes. All but 1 ml (approximately) of medium was removed and the pellet was re-suspended by flicking the tube. Suspended cells were transferred using a 2 ml pipette into a clean 1.5 ml conical Eppendorf tube. Cells were pelleted for 30 seconds at 8,000 rpm in an Eppendorf micro centrifuge. The supernatant was discarded leaving approximately 100-200 ul behind. The cell pellet was loosened by gently flicking the tube and Thrombin stock (8 ul of 1 unit/ul water, Sigma #T-7009) was added. The cells were mixed briefly by gently flicking the tube then held on ice for 2-5 minutes. Fibrinogen stock (5 ul of at 10 mg/ml water, Sigma #F-3879) was added, and the tube was incubated for 2-5 minutes at room temperature. Clotted cells were pelleted by a brief centrifuge for 20 seconds at 10K. […]
# [3] = VE-821 with Top1 inhibitor (CPT or LMP-400)
smiles,measurement,setting,value
CC[C@@]1(O)C(=O)OCc2c1cc1n(c2=O)Cc2cc3ccccc3nc2-1 [CPT],phosphorylation of ATR (threonine 1989),pT1989-ATR,delayed and best detectable after drug removal
same,phosphorylation of Chk1 (serine 345),pS345-Chk1,quickly induced the rapid phosphorylation
same,phosphorylation of Chk2 (threonine 68),pT68-Chk2,quickly induced the rapid phosphorylation
same,phosphorylation of H2AX (γH2AX),γH2AX,quickly induced the rapid phosphorylation
COc1cc2c3c(n(CCCN4CCOCC4)c(=O)c2cc1OC)-c1cc2c(cc1C3=O)OCO2 [LMP-400],effects on checkpoint phosphorylation relative to CPT,pT1989-ATR,more pronounced effects than CPT
same,phosphorylation of ATR (threonine 1989),pT1989-ATR,delayed and best detectable after drug removal
same,phosphorylation of Chk1 (serine 345),pS345-Chk1,quickly induced the rapid phosphorylation
same,phosphorylation of Chk2 (threonine 68),pT68-Chk2,quickly induced the rapid phosphorylation
same,phosphorylation of H2AX (γH2AX),γH2AX,quickly induced the rapid phosphorylation
CS(=O)(=O)c1ccc(-c2cnc(N)c(C(=O)Nc3ccccc3)n2)cc1 [VE-821],phospho-ATR (pT1989) level by Western blot compared to gemcitabine alone,"phospho-ATR (pT1989); 1 uM VE-821 combined with 150 nM gemcitabine, 4 hours, HT-29 and LoVo",reduced
same,phospho-ATR (pT1989) level by Western blot compared to vehicle,"phospho-ATR (pT1989); 1 uM alone, 4 hours, HT-29 and LoVo",did not affect
same,phosphorylation of ATR,pT1989-ATR; [3],inhibited the phosphorylation
same,phosphorylation of Chk1,pS345-Chk1; [3],inhibited the phosphorylation
same,Chk2 phosphorylation,pT68-Chk2; [3],without reducing Chk2 phosphorylation
same,γH2AX induction over time,γH2AX; [3],strongly induced
N.N.[Cl][Pt][Cl] [cisplatin],ATR foci in treated samples compared to vehicle,[1],increase in ATR foci
Nc1ccn([C@@H]2O[C@H](CO)[C@@H](O)C2(F)F)c(=O)n1 [gemcitabine],phospho-ATR (pT1989) level by Western blot,"phospho-ATR (pT1989); 150 nM, 4 hours, HT-29 and LoVo",increase
same,pT1989-ATR level by Western blot,"phospho-ATR (pT1989); 4 hours, parental DLD-1 cells",increase
same,phospho-ATR (pT1989) level by Western blot,"phospho-ATR (pT1989); gemcitabine treatment, HT-29, LoVo and DLD-1 lysates",increase
same,signal intensity for pT1989 staining compared to untreated cells,"[2]; FFPE HT29, DLD-1 cells",higher signal intensity
same,signal intensity for pT1989 staining compared to untreated cells,"[2]; HT29 cells, 150 nM, 4 hrs or 24 hrs",higher signal intensity
